Molecular target: human LAT1 (Homo sapiens, UniProt Q01650)
Assay: [14C]L-leucine uptake inhibition test using human-LAT1 stably expressing HEK293 cell line
Assay type: cell-based
Design: having full-length cDNA of human LAT1 or LAT2 inserted under a promoter of CMV; expressed in transfected cells; key to Assay Data: degree of [14C]L-leucine uptake inhibition compared with BCH: a test compound having a higher inhibitory effect than BCH is denoted by A; a test compound having the same inhibitory effect as BCH is denoted by B; a test compound having a lower inhibitory effect than BCH is denoted by C
How it was run: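 HEK293 cells stably expressing human LAT1, preincubated 10 min in Na^+-free HBSS, then exposed 1 min to 1 μM [14C]L-leucine with racemic compound (0.1, 1.0, 10, 0 μM). Lysate radioactivity counted by scintillation and normalized to protein as uptake per mg protein per minute; graded against BCH.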

human LAT1, sequence (Q01650 whole entry): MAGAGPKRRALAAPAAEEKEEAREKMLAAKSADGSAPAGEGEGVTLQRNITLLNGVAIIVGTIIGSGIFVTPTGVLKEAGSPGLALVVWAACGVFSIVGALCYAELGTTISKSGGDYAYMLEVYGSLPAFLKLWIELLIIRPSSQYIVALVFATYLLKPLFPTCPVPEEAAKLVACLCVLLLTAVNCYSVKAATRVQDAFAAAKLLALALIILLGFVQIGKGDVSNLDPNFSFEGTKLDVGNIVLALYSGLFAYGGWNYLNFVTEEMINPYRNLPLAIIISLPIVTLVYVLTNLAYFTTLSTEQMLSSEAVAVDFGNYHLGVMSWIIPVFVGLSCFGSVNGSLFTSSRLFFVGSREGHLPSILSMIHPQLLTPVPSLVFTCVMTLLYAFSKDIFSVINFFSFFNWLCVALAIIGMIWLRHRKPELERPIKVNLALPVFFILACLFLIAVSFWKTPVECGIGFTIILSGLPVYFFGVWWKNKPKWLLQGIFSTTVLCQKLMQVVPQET
human LAT1, sequence (P08195 102-630 partner): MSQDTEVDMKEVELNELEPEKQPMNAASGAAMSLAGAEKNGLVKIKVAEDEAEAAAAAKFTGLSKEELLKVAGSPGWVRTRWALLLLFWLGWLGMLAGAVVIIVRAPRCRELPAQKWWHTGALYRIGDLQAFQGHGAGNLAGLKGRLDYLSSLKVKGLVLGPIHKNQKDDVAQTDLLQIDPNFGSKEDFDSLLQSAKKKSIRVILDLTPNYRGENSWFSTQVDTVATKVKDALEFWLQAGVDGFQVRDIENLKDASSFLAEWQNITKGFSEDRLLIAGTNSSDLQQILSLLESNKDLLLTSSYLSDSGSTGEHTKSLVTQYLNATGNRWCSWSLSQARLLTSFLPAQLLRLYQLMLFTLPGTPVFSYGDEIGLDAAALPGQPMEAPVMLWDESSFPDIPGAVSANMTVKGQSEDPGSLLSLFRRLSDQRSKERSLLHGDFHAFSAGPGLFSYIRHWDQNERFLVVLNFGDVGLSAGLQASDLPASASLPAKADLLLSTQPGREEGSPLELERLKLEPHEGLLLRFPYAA

## NC1(C(=O)O)CCc2ccc(Oc3ccc4ccccc4c3)cc2C1 (stereo not shown) [Example 1-1, 2-carboxy-7-(naphthalene-2-yloxy)-1,2,3,4-tetrahydronaphthalene-2-aminium chloride]
0.1 μM of the compound (racemic form)
  suppression rate of labeled leucine uptake: about 70%
Compound (racemic form) and BCH at 0.1, 1.0, 10 μM, 1 μM [14C]L-leucine, 1 minute, Na+-free HBSS
  Assay Data: degree of [14C]L-leucine uptake inhibition compared with BCH: A
Racemic form, 1 μM [14C]L-leucine, 1 minute, read-out: 50% suppression concentration (racemic form), [14C]L-leucine uptake
  IC50: ≤ 0.1 µM
Same test as Table 1
  LAT1 inhibitory effect, compounds singled out (in words): particularly remarkable effects
